From US20090062397A1, “COMPOUNDS AND METHODS FOR ENHANCING SOLUBILITY OF FLORFENICOL AND STRUCTURALLY-RELATED ANTIBIOTICS USING CYCLODEXTRINS” (Schering-Plough Animal Health Corporation, priority 2007, published 2009)
Converted amounts (≈) assume the structure as drawn.

What was measured:
Format in all cases: physicochemical
[1] = Phase solubility study of FFC in Captisol (Higuchi Connors)
Procedure: (§1) Phase solubility analysis is one of the methods used to determine a drug:CD binding constant and its consequences on the drug solubility have been extensively described in the literature by Higuchi and Connors. In such experiments, the solubility of a substance (S) is monitored with increases in the concentration of a ligand (L) (cyclodextrin in this case). The experiments are conducted in a series of tubes or vials containing the same volume of ligand solutions with increasing concentrations, except that one tube contains the solvent only. To each tube is added a known amount of the substance or drug, and the samples are equilibrated at constant temperature. The solution phase is then analyzed for the total substance concentration. If a soluble complex forms, the substance concentration should vary with increasing ligand concentration. The solubility behavior can be determined using a phase diagram by plotting the total substance concentration versus the total ligand concentration.
(§2) Florfenicol solubility in mixed solvents, such as water/PEG-300, and florfenicol complexes with beta cyclodextrin were evaluated by solubility studies using High Performance Liquid Chromatography (HPLC). The HPLC system consisted of a Waters Alliance Separation Module equipped with a Waters 2996 Photodiode Array Detector interfaced with Millennium Chromatography manager data software. The HPLC mobile phase consisted of acetonitrile and a 0.1% phosphoric acid aqueous solution (30:70 v/v). A Phenomenx®, Luna C8 5 micron column was used. The flow rate was 1.0 mL/min and the detection wavelength was 260 nm. Binding constants were calculated using the Higuchi Connors method from solubility study plots. The solubility of florfenicol in aqueous CD/PEG-300 systems was also investigated with the same technique.
(§3) In a first set of experiments, phase solubility studies were conducted for FFC in natural and modified cyclodextrins. The results of these studies are reported in Tables I, II, III, IV and V below, and the phase solubility diagrams are reported in FIGS. 5, 6, 7 and 8.

[2] = Experimental water solubility of FFC (HPLC solubility study); conditions: thermodynamic from solid
Procedure: as §1, §2, §3

[3] = Phase solubility study of FFC in HP-Beta-CD (Higuchi Connors)
Procedure: as §1, §2, §3

[4] = Phase solubility study of FFC in Beta-CD (Higuchi Connors)
Procedure: as §1, §2, §3

[5] = Phase solubility study of FFC in Gamma-CD (Higuchi Connors)
Procedure: as §1, §2, §3

[6] = Solubility of FFC in aqueous Beta-CD/PEG-300 systems; conditions: for solubility: aqueous beta-cyclodextrin/PEG-300 system, aqueous with cosolvent or surfactant or cyclodextrin, thermodynamic from solid
Procedure: as §2
In a second set of experiments, the effects of different percentages of PEG-300 when used as a co-solvent were investigated in a FFC-cyclodextrin complex system.
The results obtained for the FEC-CD complex in the presence of different percentages of PEG-300 and different molar concentrations of cyclodextrin are reported in Tables VI and VII below.

Average FFC ([1]; Captisol 0.006 M): 4.92 mg/mL | FFC ([1]; Captisol 0.006 M): 9.28 µM | Average FFC ([1]; Captisol 0.013 M): 5.11 mg/mL | FFC ([1]; Captisol 0.013 M): 13.2 µM | Average FFC ([1]; Captisol 0.03 M): 7.98 mg/mL | Average FFC ([1]; Captisol 0.05 M): 13.17 mg/mL | FFC ([1]; Captisol 0.05 M): 34.1 µM | Average FFC ([1]; Captisol 0.10 M): 19.18 mg/mL | FFC ([1]; Captisol 0.10 M): 49.7 µM | calculated binding constant for FFC:Captisol complex ([1]; Captisol, Higuchi Connors method): 1020.92 M⁻¹ | solubility ([2]; Standard 1): 1910 µg/mL (≈ 5.33 mM) | solubility ([2]; Standard 2): 1900 µg/mL (≈ 5.3 mM) | solubility ([2]; Standard 3): 1950 µg/mL (≈ 5.44 mM) | Average FFC ([3]; HP-Beta-CD 0.006 M): 3.72 mg/mL | Average FFC ([3]; HP-Beta-CD 0.012 M): 4.88 mg/mL | Average FFC ([3]; HP-Beta-CD 0.02 M): 7.00 mg/mL | Average FFC ([3]; HP-Beta-CD 0.05 M): 9.76 mg/mL | Average FFC ([3]; HP-Beta-CD 0.09 M): 17.43 mg/mL | calculated binding constant for FFC:HP-CD complex ([3]; HP-Beta-CD, Higuchi Connors method): 816.652 M⁻¹ | Average FFC ([4]; Beta-CD 0.006 M): 4.03 mg/mL | FFC ([4]; Beta-CD 0.006 M): 10.45 µM | Average FFC ([4]; Beta-CD 0.01 M): 5.91 mg/mL | FFC ([4]; Beta-CD 0.01 M): 15.3 µM | Average FFC ([4]; Beta-CD 0.02 M): 9.79 mg/mL | FFC ([4]; Beta-CD 0.02 M): 25.4 µM | Average FFC ([4]; Beta-CD 0.05 M): 15.59 mg/mL | FFC ([4]; Beta-CD 0.05 M): 40.4 µM | calculated binding constant for FFC:CD complex ([4]; Beta-CD, Higuchi Connors method): 1429.57 M⁻¹ | Average FFC ([5]; Gamma-CD 0.007 M): 2.51 mg/mL | Average FFC ([5]; Gamma-CD 0.014 M): 3.70 mg/mL | Average FFC ([5]; Gamma-CD 0.03 M): 5.24 mg/mL | Average FFC ([5]; Gamma-CD 0.06 M): 8.20 mg/mL | Average FFC ([5]; Gamma-CD 0.11 M): 10.77 mg/mL | calculated binding constant for FFC:Gamma-CD Complex ([5]; Gamma-CD, Higuchi Connors method): 612.43 M⁻¹ | solubility of FFC (change) ([6]; PEG-300 used as co-solvent for a FFC:cyclodextrin complex): greatly increased | solubility ([6]; 10 mM beta/3% PEG-300): 7510 µg/mL (≈ 21 mM) | solubility ([6]; 10 mM beta/10% PEG-300): 6310 µg/mL (≈ 17.6 mM) | solubility ([6]; 10 mM beta/50% PEG-300): 12300 µg/mL (≈ 34.3 mM) | solubility ([6]; 50 mM beta/20% PEG-300): 10600 µg/mL (≈ 29.5 mM) | solubility ([6]; 50 mM beta/30% PEG-300): 14400 µg/mL (≈ 40.1 mM) | solubility ([6]; 50 mM beta/50% PEG-300): 15500 µg/mL (≈ 43.3 mM)
Compound: CS(=O)(=O)c1ccc([C@@H](O)[C@@H](CF)NC(=O)C(Cl)Cl)cc1 (relative stereo) [FFC, [R-(R*,S*)]2,2-Dichloro-N-[1-(fluoromethyl)-2-hydroxy-2-[4-(methylsulfonyl)phenyl]-ethyl]acetamide]
